Reference: US20250235501A1, “Methods and Compositions for Treating or Preventing Neurological Injury or Neurological Disorders” (University of Connecticut, priority 2024, published 2025)

How the values were obtained:
[1] = molecular target: T1, TRPM2 interaction with GluN2a (Rattus norvegicus, UniProt Q00959); assay: Co-IP of TRPM2 with GluN2a in co-transfected HEK293T cells; type: cell-based, human; conditions: 10 μM peptide overnight; IP anti-GluN2a, WB anti-Flag
T1 construct: TRPM2 plasmid a gift 17928; 17924; 17925; host or cells: HEK293T
Description: FIGS. 5A and 5B show the effects of TAT-EE3 on interaction of TRPM2 and NMDARs. Co-IP tests of NMDARs with WT or EE3 domain mutants of TRPM2 (Flag-tagged) in co-transfected HEK293T cells. WT TRPM2 groups were treated with 10 μM TAT-SC or TAT-EE3 overnight. Lysates were IP's with anti-GluN2a (FIG. 5A) or anti-GluN2b (FIG. 5B), and probed by WBs with anti-Flag. IgG was used as control for IP. Similar to the mutants TRPM2-ΔEE3 and TRPM2-EQE, TAT-EE3 disrupted TRPM2 interaction with GluN2a and GluN2b.
were ordered from GenScript Biotech, and dissolved in PBS to make a stock concentration at 10 mM. HEK-293T cells or isolated neurons were treated with TAT-SC or TAT-EE3 at a concentration of 10 μM for at least 8 h prior to use. Mice were injected with TAT-SC or TAT-EE3 intraperitoneally (ip) at a dose of 100 nmol/kg. […]
NP-40 lysis buffer ([…], 150 mM NaCl, 1 mM EDTA, 50 mM Tris, pH=8.0) containing proteinase inhibitors (Sigma-Aldrich, 539131-10VL) and phosphatase inhibitors (Thermal Fisher Scientific, 78428) was used to lyse both cultured cells and frozen brain tissue. […] Protein concentration was measured using Pierce™ Rapid Gold BCA Protein Assay Kit (Thermal Fisher Scientific, A53225). […] Then samples were ready for western blotting analysis.

MCAO mice = assay: Middle cerebral artery occlusion (MCAO) ischemic stroke model; type: in vivo, mouse
[2] = 100 nmol/kg ip 15 mins before MCAO, 24 hrs after MCAO, vs TAT-SC-treated mice
[3] = 1 h MCAO, administered every 12 h, day 1, day 3, and day 7
[4] = FIGS. 18C-18E, pre-MCAO administration i.p. 30 min before MCAO
[5] = post-MCAO treatment, injected right before reopening of the MCA, WT mice

T1 sequence (Q00959 23-1464, other chains not shown): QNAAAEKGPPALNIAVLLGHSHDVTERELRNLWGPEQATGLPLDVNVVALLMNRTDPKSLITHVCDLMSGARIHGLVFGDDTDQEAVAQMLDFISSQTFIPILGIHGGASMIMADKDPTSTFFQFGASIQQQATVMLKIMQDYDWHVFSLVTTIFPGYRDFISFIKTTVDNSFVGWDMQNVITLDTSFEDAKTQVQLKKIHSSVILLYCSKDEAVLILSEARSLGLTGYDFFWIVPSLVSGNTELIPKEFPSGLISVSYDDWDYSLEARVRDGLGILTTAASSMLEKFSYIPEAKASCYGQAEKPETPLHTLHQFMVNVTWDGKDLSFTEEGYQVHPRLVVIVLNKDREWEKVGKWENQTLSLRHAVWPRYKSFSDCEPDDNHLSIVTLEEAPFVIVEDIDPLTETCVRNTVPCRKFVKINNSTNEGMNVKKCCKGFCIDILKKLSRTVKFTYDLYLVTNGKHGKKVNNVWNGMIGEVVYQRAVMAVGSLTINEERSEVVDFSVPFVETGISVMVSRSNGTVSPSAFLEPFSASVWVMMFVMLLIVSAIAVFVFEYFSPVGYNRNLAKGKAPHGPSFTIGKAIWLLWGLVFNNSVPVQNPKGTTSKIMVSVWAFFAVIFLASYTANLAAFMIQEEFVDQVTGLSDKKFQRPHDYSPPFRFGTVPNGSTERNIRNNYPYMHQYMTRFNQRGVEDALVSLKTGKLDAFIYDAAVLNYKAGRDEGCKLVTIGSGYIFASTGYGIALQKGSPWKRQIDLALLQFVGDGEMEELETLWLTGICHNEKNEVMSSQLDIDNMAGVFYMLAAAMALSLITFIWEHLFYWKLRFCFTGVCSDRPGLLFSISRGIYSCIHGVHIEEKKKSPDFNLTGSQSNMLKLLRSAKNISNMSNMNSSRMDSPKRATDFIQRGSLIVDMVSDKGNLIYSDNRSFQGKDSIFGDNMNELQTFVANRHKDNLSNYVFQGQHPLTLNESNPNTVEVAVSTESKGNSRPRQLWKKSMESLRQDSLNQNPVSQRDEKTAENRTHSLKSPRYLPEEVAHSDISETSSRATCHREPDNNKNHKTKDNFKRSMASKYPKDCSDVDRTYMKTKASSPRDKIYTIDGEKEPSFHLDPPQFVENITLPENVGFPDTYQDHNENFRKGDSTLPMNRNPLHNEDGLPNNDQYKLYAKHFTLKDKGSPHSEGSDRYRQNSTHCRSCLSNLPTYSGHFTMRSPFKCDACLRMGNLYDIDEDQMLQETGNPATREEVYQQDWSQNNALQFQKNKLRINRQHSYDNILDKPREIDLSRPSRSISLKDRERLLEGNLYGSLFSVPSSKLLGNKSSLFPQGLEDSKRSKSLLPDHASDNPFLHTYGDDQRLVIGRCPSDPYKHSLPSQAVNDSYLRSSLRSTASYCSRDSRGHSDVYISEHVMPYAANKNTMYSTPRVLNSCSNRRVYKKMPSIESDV

TAT-EE3: membrane permeable disrupting peptide, sequence YGRKKRRQRRREEDTDSSEEMLALAEE (SEQ ID NO: 4)
interaction of TRPM2 with GluN2a (co-IP) [1]: completely disrupted | infarct volume (MCAO mice; [2]): significantly reduced | neurological behavior scores (MCAO mice; [2]): improved | ND scores, long-term MCAO (7 days) (MCAO mice; [3]): improved | latency to fall time (rotarod test), long-term MCAO (MCAO mice; [3]): inhibited the reduction | infarct volume (MCAO mice; [4]): reduced | neurological deficit (ND) score (MCAO mice; [4]): improved | ND score (MCAO mice; [5]): improved | infarct volume (MCAO mice; [5]): reduced | protective effects in nM2KO mice (MCAO mice; post-MCAO treatment, neuron-specific TRPM2 knockout mice): did not produce further protective effects
